Reference: patent US8420695B2, “Inhibitors of janus kinases” (Merck Sharp & Dohme Corp., priority 2008, dated 2013)

Biological target: T1, recombinant JAK2 (JAK2 JH1 domain) (Homo sapiens, UniProt O60674)
T1 construct: 50 nM JAK2 JH1 domain (Upstate); purchased Upstate
Test: JAK2 Kinase Activity Inhibition Assay and Determination of IC50 (HTRF)
Assay type: biochemical
Settings: 50 nM JAK2 JH1 domain, 15 μM MgATP, 80 min at room temperature
Method: JAK2 Kinase Activity Inhibition Assay and Determination of IC50
The kinase activity was measured using a modified version of the homogeneous time-resolved tyrosine kinase assay described in Park et al. Anal. Biochem. 269, 94-104 (1999).
IC50 was obtained by fitting the observed relationship between compound/inhibitor concentration and HTRF signal with a 4-parameter logistic equation.

T1 sequence (O60674 849-1124 limits assumed): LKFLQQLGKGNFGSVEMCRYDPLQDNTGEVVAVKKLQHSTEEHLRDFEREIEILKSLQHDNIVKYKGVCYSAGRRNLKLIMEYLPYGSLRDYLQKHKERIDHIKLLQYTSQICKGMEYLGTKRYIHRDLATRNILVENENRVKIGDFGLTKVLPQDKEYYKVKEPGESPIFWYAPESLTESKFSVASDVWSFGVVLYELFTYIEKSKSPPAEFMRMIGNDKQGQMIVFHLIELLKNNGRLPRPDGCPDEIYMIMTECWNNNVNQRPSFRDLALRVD

Row | IC50 [nM] | SMILES
1 | 47 | CC(C)(O)c1cc(F)c(-c2cc(C(N)=O)c(Nc3ccc(S(C)(=O)=O)cc3)s2)c(F)c1 [Example 1, 5-[2,6-difluoro-4-(1-hydroxy-1-methylethyl)phenyl]-2-{[4-(methylsulfonyl)phenyl]amino}thiophene-3-carboxamide]
2 | 220 | CS(=O)(=O)c1ccc(Nc2sc(-c3ccc(Cl)cc3)cc2C(N)=O)cc1 [Example 2, 5-(4-chlorophenyl)-2-{[4-(methylsulfonyl)-phenyl]amino}thio-phene-3-carboxamide]
3 | 32 | CNC(=O)c1ccc(Nc2sc(-c3c(F)cc(C(C)(C)O)cc3F)cc2C(N)=O)cc1 [Example 4, 5-[2,6-difluoro-4-(1-hydroxy-1-methylethyl)-phenyl]-2-({4-[(methylamino)-carbonyl]phenyl}-amino)thiophene-3-carboxamide]
4 | 21 | CN(C)C(=O)c1ccc(Nc2sc(-c3c(F)cc(C(C)(C)O)cc3F)cc2C(N)=O)cc1 [Example 5, 5-[2,6-difluoro-4-(1-hydroxy-1-methylethyl)-phenyl]-2-({4-[(dimethylamino)carbonyl]phenyl}amino)thiophene-3-carboxamide]
5 | 120 | CC(C)(O)c1cc(F)c(-c2cc(C(N)=O)c(Nc3ccncc3)s2)c(F)c1 [Example 6, 5-[2,6-difluoro-4-(1-hydroxy-1-methylethyl)-phenyl]-2-(pyridin-4-ylamino)thio-phene-3-carboxamide]
6 | 75 | CC(C)(O)c1cc(F)c(-c2cc(C(N)=O)c(Nc3ccnc(CO)c3)s2)c(F)c1 [Example 7, 5-[2,6-difluoro-4-(1-hydroxy-1-methylethyl)-phenyl]-2-{[2-(hydroxymethyl)-pyridin-4-yl]amino}thio-phene-3-carboxamide]
7 | 1400 | Cc1noc(-c2ccc(Nc3sc(-c4c(F)cc(C(C)(C)O)cc4F)cc3C(N)=O)cc2)n1 [Example 9, 5-[2,6-difluoro-4-(1-hydroxy-1-methylethyl)-phenyl]-2-{[4-(3-methyl-1,2,4-oxadiazol-5-yl)phenyl]amino} thiophene-3-carboxamide]
8 | 220 | CC(C)(O)c1ccc(-c2cc(C(N)=O)c(Nc3cccnc3)s2)cc1 [Example 10, 5-(4-(1-Hydroxy-1-methylethyl)phenyl)-2-(3-pyridinylamino)-3-thiophenecarboxamide]
9 | 110 | CC(=O)c1ccc(Nc2sc(-c3c(F)cc(C(C)(C)O)cc3F)cc2C(N)=O)cc1 [Example 11, 2-[(4-acetylphenyl)amino]-5-[2,6-difluoro-4-(1-hydroxy-1-methylethyl)phenyl]thiophene-3-carboxamide]
10 | 29 | CC(C)(O)c1ccc(Nc2sc(-c3c(F)cc(C(C)(C)O)cc3F)cc2C(N)=O)cc1 [Example 12, 5-[2,6-difluoro-4-(1-hydroxy-1-methylethyl)phenyl]-2-{[4-(1-hydroxy-1-methylethyl)phenyl]amino}thiophene-3-carboxamide]
11 | 21 | CC(C)(O)c1cc(F)c(-c2cc(C(N)=O)c(Nc3ccc(C(=O)N4CCOCC4)cc3)s2)c(F)c1 [Example 14, 5-[2,6-difluoro-4-(1-hydroxy-1-methylethyl)phenyl]-2-{[4-(morpholin-4-ylcarbonyl)phenyl]amino}thiophene-3-carboxamide]
12 | 1000 | NC(=O)c1cc(-c2ccccc2)sc1Nc1ccccc1 [Example 17, 2-Anilino-5-phenylthiophene-3-carboxamide]
13 | 320 | NC(=O)c1cc(-c2ccccc2)sc1Nc1cccnc1 [Example 18, 5-Phenyl-2-(pyridin-3-ylamino)-thiophene-3-carboxamide]
14 | 2600 | NC(=O)c1cc(-c2ccccc2)sc1Nc1cncnc1 [Example 19, 5-Phenyl-2-(pyrimidin-5-ylamino)-thiophene-3-carboxamide]
15 | 180 | NC(=O)c1cc(-c2ccccc2)sc1Nc1ccncc1 [Example 20, 5-Phenyl-2-(pyridin-4-ylamino)-thiophene-3-carboxamide]
16 | 490 | CC(C)(O)c1cc(F)c(-c2cc(C(N)=O)c(Nc3ccccc3)s2)c(F)c1 [Example 21, 2-anilino-5-[2,6-difluoro-4-(1-hydroxy-1-methylethyl)phenyl]thiophene-3-carboxamide]
17 | 170 | CC(C)(O)c1cc(F)c(-c2cc(C(N)=O)c(Nc3ccc(CO)cc3)s2)c(F)c1 [Example 22, 5-[2,6-difluoro-4-(1-hydroxy-1-methylethyl)-phenyl]-2-{[4-(hydroxymethyl)-phenyl]amino}-thiophene-3-carboxamide]
18 | 42 | CC(C)(O)c1cc(F)c(-c2cc(C(N)=O)c(Nc3ccc(CN4CCOCC4)cc3)s2)c(F)c1 [Example 23, 5-[2,6-difluoro-4-(1-hydroxy-1-methylethyl)-phenyl]-2-{[4-(morpholin-4-ylmethyl)-phenyl]amino}-thiophene-3-carboxamide]
19 | 410 | CC(C)(O)c1cc(F)c(-c2cc(C(N)=O)c(Nc3ccc(C=O)cc3)s2)c(F)c1 [Example 24, 5-[2,6-difluoro-4-(1-hydroxy-1-methylethyl)phenyl]-2-[(4-formylphenyl)amino]thiophene-3-carboxamide]
20 | 26 | CC(C)(O)c1cc(F)c(-c2cc(C(N)=O)c(Nc3ccc(CN4CCS(=O)(=O)CC4)cc3)s2)c(F)c1 [Example 25, 5-[2,6-difluoro-4-(1-hydroxy-1-methylethyl)phenyl]-2-({4-[(1,1-dioxidothiomorpholin-4-yl)methyl]phenyl}amino)thiophene-3-carboxamide]
21 | 22 | CN(C)Cc1ccc(Nc2sc(-c3c(F)cc(C(C)(C)O)cc3F)cc2C(N)=O)cc1 [Example 26, 5-[2,6-difluoro-4-(1-hydroxy-1-methylethyl)-phenyl]-2-({4-[(dimethylamino)methyl]phenyl}-amino)-thiophene-3-carboxamide]
22 | 56 | CC(C)(O)c1cc(F)c(-c2cc(C(N)=O)c(Nc3ccc(S(=O)(=O)N4CCOCC4)cc3)s2)c(F)c1 [Example 28, 5-[2,6-difluoro-4-(1-hydroxy-1-methylethyl)phenyl]-2-{[4-(morpholin-4-ylsulfonyl)phenyl]amino}thiophene-3-carboxamide]
23 | 44 | CN(C)S(=O)(=O)c1ccc(Nc2sc(-c3c(F)cc(C(C)(C)O)cc3F)cc2C(N)=O)cc1 [Example 29, 5-[2,6-difluoro-4-(1-hydroxy-1-methylethyl)-phenyl]-2-({4-[(dimethylamino)sulfonyl]phenyl}-amino)-thiophene-3-carboxamide]
24 | 56 | CC(C)(O)c1cc(F)c(-c2cc(C(N)=O)c(Nc3ccc(NS(C)(=O)=O)cc3)s2)c(F)c1 [Example 31, 5-[2,6-difluoro-4-(1-hydroxy-1-methylethyl)phenyl]-2-({4-[(methylsulfonyl)amino]phenyl}amino)thiophene-3-carboxamide]
